The results in this text go back to patent publication US7091185B2, “Periodic antimicrobial peptides” (Dow Global Technologies Inc., priority 2003, dated 2006).

For assay [1], the system named is P. aeruginosa ATCC 15442. Briefly: HMARQ biocidal kill activity. The format is cell-based. The conditions noted are these: P. aeruginosa ATCC 15442 (gram−). The procedure:
(§1) Biocide efficacy protocols were improved by reducing sample size, organizing the test material into an array format, implementing most probable number (MPN) quantitation and using multi-channel liquid handling equipment. We call the new method “high-throughput microanalysis and rapid quantitation” or “HMARQ.” HMARQ is directly applicable to current industrial efficacy tests such as multi-cycle preservation challenge or time course disinfection tests.
(§2) HMARQ is performed in a high throughput plate, such as 96-well microtiter plates. Typical sample volumes have been reduced down to 200 to 300 μL, but can be reduced further if desired. In these samples, no more than 10% of the total volume will be composed of the biocide and organism solution, and all non-matrix additions are normalized for all samples.
(§3) The sample matrix is first inoculated with the desired concentration of microorganisms. Inoculated sample matrix is then added to the 96-well assay block containing the biocide(s) under study. Each sample block contains biocide treated samples and untreated control samples (lacking biocide). Once the samples are prepared, the entire block of samples is mixed by vortexing until each sample is homogenous. In general, the study starts once mixing is complete, and samples are removed as required for the analysis. When Kill Time testing (rate of biocide activity) is performed, the microorganisms are added after biocide addition to the samples, allowing for rapid mixing and analysis.
(§4) Bacterial concentration (CFU/mL) is determined using the most probable number method (MPN). The contaminated solution is serially diluted until the “no growth” endpoint is reached. The endpoint represents the MPN and is expressed in units of the bacterial concentration. A serial 1:10 dilution will yield a bacterial concentration resolution of 1 log and the log reduction is determined by comparing the concentration of organisms in a treated sample to the concentration of organisms in untreated samples. For example, if a sample requires four 1:10 dilutions before bacterial growth is lost then the MPN for bacterial concentration in the sample is less than or equal to 1×10^4 CFU/mL (1E4). […] This method of enumeration is generally applicable to all non-filamentous microorganisms.
(§5) Media included Tryptic Soy Broth (TSB) for bacteria and Sabouraud Dextrose Broth (SDB) for fungi. These are available commercially and prepared according to the manufacturers instructions. Indicator medium was TSB/R for bacteria and SDB/R for fungi. These were made by addition of 50 μM filter sterilized Resazurin to the sterilized and cooled medium. Tryptic Soy agar plates (TSA) and SDA slants were used to provide inoculant for bacterial and fungal cultures. The indicator dye appeared pink or white when bacterial growth was present.
(§6) Using the HMARQ test described above, periodic peptides were generated and tested for Kill Activity. In this experiment, a broader range of peptidezs were tested for activity. Units are expressed as ppm (μg/mL) needed for 3.5 log kill at 15 min or 24 hour and the results are shown below.

For assay [2], the system named is Staph. aureus ATCC 6538. The assay is described as follows: HMARQ biocidal kill activity. The note with it: Staph. aureus ATCC 6538 (gram+). It is filed as cell-based. Here is the method:
as §1, §2, §3, §4, §5, §6

For assay [3], the system named is P. aeruginosa ATCC 10145. The conditions noted are these: ATCC 10145. Here is the method:
The bacteria tested were P. aeruginosa American Type Culture Collection Number (ATCC) 10145, E. coli ATCC 2592, and S. aureus (methicillin reseistant) ATTC 33591.
All experiments were compared to bacterial growth under optimal growth conditions (37° C., pH 7.0, absence of additional salt, growth media—referred to as standard growth conditions). In each plate, no growth control (media alone), positive growth control (bacteria with no test sample), positive antimicrobial controls (agents with known antimicrobial activity) and test compounds were tested.
The plates were incubated overnight, and the relative percent growth determined by optical density at 620 nm (OD620) using a […] […] PLUS™. […] All samples were tested in duplicate and each assay was repeated at least twice. […] IC50 and MIC are reported in μg/ml.

Where no end group is shown, it is not given here.

With “KGK KGK KGK KGK KGK KGK KGK KGK KGK KGK KGK KGK KGK KGK KGK (KGKKGKKGKKGKKGKKGKKGKKGKKGKKGKKGKKGKKGKKGKKGK; Periodic Peptide) [KGK(15)]”, the “ppm needed for 3.5 log kill at 15 min” value is 4 ppm in assay [1] and 125 ppm in assay [2]. The results for the “ppm needed for 3.5 log kill at 24 hr” value in assay [1] and in assay [2] were 16 ppm and 62 ppm, respectively.

Consider “KGK KGK KGK KGK KGK KGK KGK KGK KGK KGK KGK (KGKKGKKGKKGKKGKKGKKGKKGKKGKKGKKGK; Periodic Peptide) [KGK(11)]”, for which the “ppm needed for 3.5 log kill at 15 min” value was 8 ppm in assay [1] and >500 ppm in assay [2]. Besides, the “ppm needed for 3.5 log kill at 24 hr” value in assay [1] and in assay [2] was 8 ppm in each case.

For the molecule “KFAKKAAKKFAKKAAK [PBF16c, KFAKKAAKKFAKKAAK, reference compound]”, in assay [3], the IC50 is >250 µg/mL and the minimum inhibitory concentration (MIC) is >250 µg/mL.

Turning to “KFK KFK KFK KFK KFK KFK KFK KFK KFK KFK KFK KFK (KFKKFKKFKKFKKFKKFKKFKKFKKFKKFKKFKKFK; Periodic Peptide) [KFK(12)]”, the “ppm needed for 3.5 log kill at 15 min” value in assay [1] is listed as 4 ppm; in assay [2], >500 ppm. Also, the figures for the “ppm needed for 3.5 log kill at 24 hr” value in assay [1] and in assay [2] were 8 ppm and 250 ppm, respectively.

As to “LK LK LK LK LK (LKLKLKLKLK; Periodic Peptide) [LK(5)]”, the “ppm needed for 3.5 log kill at 15 min” value in assay [1] is recorded as 62 ppm; in assay [2], >500 ppm. Moreover, the “ppm needed for 3.5 log kill at 24 hr” value in assay [1] is listed as 62 ppm; in assay [2], 31 ppm.

Turning to “H-KFAKKFAKKFAKKAAK-OH [PBF16a, KFAKKFAKKFAKKAAK, reference compound]”, in assay [3], the 50% inhibitory concentration (IC50) is >250 µg/mL and the MIC was >250 µg/mL.

Regarding “FKA FKA FKA FKA FKA FKA FKA FKA FKA FKA FKA FKA FKA FKA FKA FKA FKA (FKAFKAFKAFKAFKAFKAFKAFKAFKAFKAFKAFKAFKAFKAFKAFKAFKA; Periodic Peptide) [FKA(17)]”, in assay [1], the “ppm needed for 3.5 log kill at 15 min” value is reported as 16 ppm and the “ppm needed for 3.5 log kill at 24 hr” value came out at 16 ppm. For the same molecule, in assay [2], the “ppm needed for 3.5 log kill at 15 min” value was found to be 4 ppm and the “ppm needed for 3.5 log kill at 24 hr” value amounted to 8 ppm.

As for “LK LK LK LK LK LK LK LK LK LK LK LK LK LK LK LK LK LK (LKLKLKLKLKLKLKLKLKLKLKLKLKLKLKLKLKLK; Periodic Peptide) [LK(18)]”, the figures for the “ppm needed for 3.5 log kill at 15 min” value in assay [1] and in assay [2] were 16 ppm and 8 ppm, respectively. Moreover, the “ppm needed for 3.5 log kill at 24 hr” value in assay [1] is reported as 31 ppm; in assay [2], 16 ppm.

In the case of “LK LK LK LK LK LK LK LK LK LK LK LK LK LK LK LK LK LK LK LK LK LK LK LK (LKLKLKLKLKLKLKLKLKLKLKLKLKLKLKLKLKLKLKLKLKLKLKLK; Periodic Peptide) [LK(24)]”, the results for the “ppm needed for 3.5 log kill at 15 min” value in assay [1] and in assay [2] were 16 ppm and >500 ppm, respectively. Moreover, the entries for the “ppm needed for 3.5 log kill at 24 hr” value in assay [1] and in assay [2] were 63 ppm and >500 ppm, respectively.

On to “H-KFAKKFAKKAAKKAAK-OH [PBF16b, KFAKKFAKKAAKKAAK, reference compound]”, for which, in assay [3], the IC50 was >250 µg/mL and the minimal inhibitory concentration (MIC) was >250 µg/mL.

For “KTK KTK KTK KTK KTK KTK KTK (KTKKTKKTKKTKKTKKTKKTK; Periodic Peptide) [KTK(7)]”, in assay [1], the “ppm needed for 3.5 log kill at 15 min” value stood at 31 ppm and the “ppm needed for 3.5 log kill at 24 hr” value is 31 ppm. In assay [2], the “ppm needed for 3.5 log kill at 15 min” value turned out to be 250 ppm and the “ppm needed for 3.5 log kill at 24 hr” value is given as 8 ppm.

For “KFK KFK KFK KFK KFK KFK KFK KFK KFK KFK KFK KFK KFK KFK KFK KFK (KFKKFKKFKKFKKFKKFKKFKKFKKFKKFKKFKKFKKFKKFKKFKKFK; Periodic Peptide) [KFK(16)]”, the “ppm needed for 3.5 log kill at 15 min” value is 16 ppm in assay [1] and >500 ppm in assay [2]. The “ppm needed for 3.5 log kill at 24 hr” value in assay [1] worked out at 31 ppm; in assay [2], 16 ppm.

B1: FKA FKA FKA FKA FKA FKA FKA FKA FKA FKA FKA FKA FKA FKA FKA FKA FKA FKA FKA FKA FKA (peptide)
chain: FKAFKAFKAFKAFKAFKAFKAFKAFKAFKAFKAFKAFKAFKAFKAFKAFKAFKAFKAFKAFKA
modifications: Periodic Peptide
Take B1: the “ppm needed for 3.5 log kill at 15 min” value in assay [1] stood at 8 ppm; in assay [2] it was 4 ppm. In addition, the “ppm needed for 3.5 log kill at 24 hr” value in assay [1] is given as 16 ppm; in assay [2], 125 ppm.

B2: KFK KFK KFK KFK KFK KFK KFK KFK KFK KFK KFK KFK KFK KFK KFK KFK KFK KFK KFK KFK KFK (peptide)
chain: KFKKFKKFKKFKKFKKFKKFKKFKKFKKFKKFKKFKKFKKFKKFKKFKKFKKFKKFKKFKKFK
modifications: Periodic Peptide
As to B2, in assay [1], the “ppm needed for 3.5 log kill at 15 min” value amounted to 31 ppm and the “ppm needed for 3.5 log kill at 24 hr” value was found to be 63 ppm. In assay [2], the “ppm needed for 3.5 log kill at 15 min” value was >500 ppm and the “ppm needed for 3.5 log kill at 24 hr” value worked out at 250 ppm.

B3: KFAK KFAK KFAK KFAK KFAK KFAK KFAK KFAK KFAK KFAK KFAK KFAK KFAK KFAK KFAK KFAK KFAK (peptide)
chain: KFAKKFAKKFAKKFAKKFAKKFAKKFAKKFAKKFAKKFAKKFAKKFAKKFAKKFAKKFAKKFAKKFAK
modifications: Periodic Peptide
Turning to B3, in assay [1], the “ppm needed for 3.5 log kill at 15 min” value was found to be 16 ppm and the “ppm needed for 3.5 log kill at 24 hr” value worked out at 250 ppm. Further, in assay [2], the “ppm needed for 3.5 log kill at 15 min” value turned out to be 250 ppm and the “ppm needed for 3.5 log kill at 24 hr” value is reported as 500 ppm.
